Values after ≈ are worked out from the molar mass of the structure shown. Active and inactive are the calls of the source. The calls are words filed in the database; no cut-off is given here.
Experiments:
Cladosporium cucumerinum [1] = test: Antifungal activity against Cladosporium cucumerinum at 0.80 umol after 2 days; assay type: functional
[2] = Toxicity against Artemia salina assessed as mortality after 48 hrs; assay type: organism-based; conditions: in vivo
Cladosporium cucumerinum [3] = test: Antifungal activity against Cladosporium cucumerinum at 0.10 umol after 2 days; assay type: functional
Staphylococcus aureus = test: Antibacterial activity against Staphylococcus aureus ATCC 25923 at 100 ug/disk after 24 hrs by agar plate diffusion method; assay type: functional, organism-based
Spodoptera littoralis [4] = test: Insecticidal activity against Spodoptera littoralis larvae assessed as inhibition of larval growth at 530 ppm treated in artificial diet after 6 days; assay type: functional; parameters: scale not given: the % may be the effect or the level left
Spodoptera littoralis [5] = test: Insecticidal activity against Spodoptera littoralis larvae assessed as inhibition of larval growth treated in artificial diet after 6 days; assay type: functional, organism-based
Bacillus subtilis = test: Antibacterial activity against Bacillus subtilis 168 at 100 ug/disk after 24 hrs by agar plate diffusion method; assay type: functional, organism-based; conditions: subsp. subtilis str. 168
Micrococcus luteus = test: Antibacterial activity against Micrococcus luteus at 100 ug/disk after 24 hrs by agar plate diffusion method; assay type: functional
Escherichia coli = test: Antibacterial activity against Escherichia coli ATCC 25922 at 100 ug/disk after 24 hrs by agar plate diffusion method; assay type: functional, organism-based
Salmonella typhi = test: Antibacterial activity against Salmonella typhii at 100 ug/disk after 24 hrs by agar plate diffusion method; assay type: functional, Salmonella enterica subsp. enterica serovar Typhi

With `C[C@]12CC[C@H]3[C@@](C)(CCC[C@@]3(C)C(=O)O)[C@@H]1CC[C@@]1(C)Oc3c(O)ccc(Oc4ccc5c(c4)C[C@H]4[C@]6(C)CC[C@@H]7[C@](C)(CCC[C@]7(C)C(=O)O)[C@H]6CC[C@]4(C)O5)c3C[C@H]21` [DISTRONGYLOPHORINE] the Activity (Cladosporium cucumerinum [1]) was “inactive”, the LC50 at 48 h [2] was 10.5 µg/mL (≈ 12.8 µM) and the Activity (Cladosporium cucumerinum [3]) was “inactive”.

With `C[C@]12CCC[C@](C)(C(=O)O)[C@@H]1CC[C@]1(C)[C@@H]2CC[C@]2(C)Oc3ccc(O)cc3C[C@@H]12` [Strongylophorin-3] the “inhibition zone (IZ)” value (Cladosporium cucumerinum [1]) was 15 mm, the Activity (Staphylococcus aureus) was “inactive” and the Activity (Spodoptera littoralis [4]) was 90%. The EC50 (Spodoptera littoralis [5]) was 69 ppm, the Activity (Bacillus subtilis) was “inactive” and the LC50 at 48 h [2] was 59.2 µg/mL (≈ 143 µM). For the same compound, the Activity (Micrococcus luteus) was “inactive”, the Activity (Escherichia coli) was “inactive” and the “inhibition zone (IZ)” value (Cladosporium cucumerinum [3]) was 10 mm. For the same compound, the zone of inhibition at 100 µg/disc (Salmonella typhi; Salmonella enterica, read-out: IZ) was 9 mm.

With `C[C@@]12CC[C@@H]3[C@]4(CCC[C@@]3(C)C(=O)OC4)[C@H]1CC[C@]1(C)Oc3ccc(O)cc3C[C@@H]21` [strongylophorine-2] the Activity (Cladosporium cucumerinum [1]) was “inactive”, the Activity (Staphylococcus aureus) was “inactive” and the Activity (Bacillus subtilis) was “inactive”. The LC50 at 48 h [2] was 534 µg/mL (≈ 1300 µM), the zone of inhibition at 100 µg/disc (Micrococcus luteus; read-out: IZ) was 7 mm and the Activity (Escherichia coli) was “inactive”. For the same compound, the Activity (Cladosporium cucumerinum [3]) was “inactive” and the Activity (Salmonella typhi; Salmonella enterica subsp. enterica serovar Typhi) was “inactive”.

With `CC(=O)[C@@]1(C)CCC[C@]2(C)[C@H]3CC[C@]4(C)Oc5ccc(O)cc5C[C@H]4[C@]3(C)CC[C@H]21` [strongylophorine-4] the Activity (Cladosporium cucumerinum [1]) was “inactive”, the LC50 at 48 h [2] was 143 µg/mL (≈ 349 µM) and the Activity (Cladosporium cucumerinum [3]) was “inactive”.
